# Read-outs that look alike come from different tables or passages of the source.
# Key:
# [1] = set-up: method as in Gaillard et al., 2019; details: lipoplexes with pCMV-Gluc, N/P 3, 1 molar equivalent of DOPE; ref Gaillard et al., 2019; cited from earlier work
# [2] = set-up: method as in Gaillard et al., 2019; details: pyrene fluorescence; ref Gaillard et al., 2019; cited from earlier work
# A549 cells [3] = system: A549 cells; set-up: method as in Gaillard et al., 2019; details: A549, 24 h at 37°C, MTT assay; ref Gaillard et al., 2019; cited from earlier work
# 16HBE cells = system: 16HBE cells; set-up: method as in Gaillard et al., 2019; details: 24 h at 37°C, MTT assay, ref Gaillard et al., 2019; cited from earlier work
# H292 cells = system: H292 cells; set-up: method as in Gaillard et al., 2019; details: H292, 24 h at 37°C, MTT assay; ref Gaillard et al., 2019; cited from earlier work
# [4] = set-up: method as in Gaillard et al., 2019; details: ref Gaillard et al., 2019, cited from earlier work
# sheep RBC = details: sheep RBC, 37°C, ref Gaillard et al., 2019, cited from earlier work
# A549 cells [5] = assay: Antiproliferative effect of pUNO1-hTRAIL vs pCMV-Gluc lipoplexes, MTT, A549; format: cell-based, human; details: N/P 3, 1 eq. DOPE, pDNA 0.3 and 0.4 μg/well
# Description: Cells were treated with lipoplexes prepared from pro-APLs ME12, PE12, and EE12, with increasing dose of pDNA (0.1–0.4 μg per well). The gold standard gene delivery reagent Lipofectamine® 2000 was assayed in parallel for comparison purpose. In order to distinguish the intrinsic cytotoxic effect of the in situ generated APLs from that resulting from TRAIL expression, pCMV-Gluc was assayed in parallel to pUNO1-hTRAIL. Using pCMV-Gluc, the observed cytotoxicity was assumed to result only from the APL antiproliferative activity, whereas results obtained with pUNO1-hTRAIL are a combination of TRAIL activity and APL antiproliferative effect. […] Though the temptation is to take it as an indicator that functional TRAIL was produced, the difference found was not always statistically significant. The activity profile of the three pro-APLs varied according to the cell line. […]
# Figure 8 Antiproliferative effect of lipoplexes prepared from ME12 (A), PE12 (B), EE12 (C), and the two DNA plasmids pCMV-Gluc (light bars) and pUNO1-hTRAIL (dark bars), on the three cell lines. […] Lipofectamine®-based lipoplexes (0.1 μg plasmid/well) were prepared according to the optimized experimental conditions determined following the supplier's instructions. Cell viability was measured by the MTT assay. Basal mitochondrial activity measured in untreated cells is set at 100%. […]
smiles,measurement,setting,value
CCCCCCCC/C=C\CCCCCCCCCCCCOP(=O)(OCCC[N+](C)(C)C)OCOC(=O)CCCCCCCCCCC (stereo not shown) [EE12],Particle size of lipoplexes,[1],141 ± 5 nm
same,CMC (APLs) / CAC (pro-APLs),[2],0.6 ± 0.2 µM
same,IC50,A549 cells [3],151 ± 42 µM
same,IC50,16HBE cells,144 ± 66 µM
same,IC50,H292 cells,125 ± 26 µM
same,H120 (hydrolysis rate after a 120-h incubation period),[4]; pH 4.5,2%
same,H120 (hydrolysis rate after a 120-h incubation period),[4]; pH 7.4,17%
same,HA200 (hemolytic activity at 200 μM),sheep RBC; 1 h,< 1%
same,HA200 (hemolytic activity at 200 μM),sheep RBC; 24 h,18.6 ± 1.5%
same,TRAIL-induced cell death,A549 cells [5],15-17%
